Experimental data from patent EP0220153B1, “A nutritive emulsion having oxygen-transporting properties, and process for its preparation” (Kabi Pharmacia AB, priority 1985, dated 1987).

Assay: acute toxicity test on mice
Details: mouse, in vivo, other: injected, injected as emulsion of example 1 composition, observation time 72 hours, expressed for perfluorodecalin
Procedure: An emulsion of the same composition and prepared in the same way as in example 1 was tested on mice for acute toxicity. Observation time was 72 hours.
It appears that the acute toxicity (LD₅₀) will be just below 30 g/kg for perfluorodecalin. Owing to the great volumes that were injected, it cannot be excluded that changes in liquid and electrolyte balance have affected the results and that, therefore, an examination of this kind not solely reflects the toxicity of the fluorocarbon compound; however, the indicated value of 30 g/kg is of such a magnitude that the preparation can be regarded as non-toxic.

FC1(F)C(F)(F)C(F)(F)C2(F)C(F)(F)C(F)(F)C(F)(F)C(F)(F)C2(F)C1(F)F (stereo not shown) [perfluorodecalin]
LD50 at 72 h: < 30000 mg/kg
